Experimental data taken from ChEMBL document CHEMBL4257444, “Novel bipharmacophoric inhibitors of the cholinesterases with affinity to the muscarinic receptors M1 and M2” (Medchemcomm, 2017).

Legend:
[1] = tested on: HepG2; experiment: cells; details: Homo sapiens, HepG2, 72 h
Description: Cytotoxicity against human HepG2 cells after 72 hrs by alamar blue assay

[2] = biological target: Cholinesterase (Equus caballus, UniProt P81908)
Description: Inhibition of equine serum BChE using butyrylthiocholine iodide as substrate pretreated for 4.5 mins followed by substrate addition and measured after 2.5 mins by Ellman's method

[3] = biological target: Acetylcholinesterase (Electrophorus electricus, UniProt O42275)
Description: Inhibition of electric eel AChE using acetylthiocholine iodide as substrate pretreated for 4.5 mins followed by substrate addition and measured after 2.5 mins by Ellman's method

[4] = physchem; details: octanol/water
Description: Octanol/water partition co-efficient, log P of the compound by RP-HPLC analysis

[5] = biological target: Cholinesterase (Homo sapiens, UniProt P06276); experiment: Inhibition of human serum BChE using butyrylthiocholine iodide as substrate pretreated for 4.5 mins followed by substrate addition and measured after 2.5 mins by Ellman's method
[6] = biological target: Acetylcholinesterase (Homo sapiens, UniProt P22303); experiment: Inhibition of recombinant human AChE expressed in HEK293 cells using acetylthiocholine iodide as substrate pretreated for 4.5 mins followed by substrate addition and measured after 2.5 mins by Ellman's method
[7] = species: Homo sapiens; experiment: Selectivity ratio of compound effect for displacement of [3H]NMS from recombinant human M2 receptor expressed in CHO cell membranes to displacement of [3H]NMS from recombinant human M1 receptor expressed in CHO cell membranes
[8] = biological target: Acetylcholinesterase (Electrophorus electricus) (UniProt O42275); experiment: Inhibition of electric eel AChE at 100 uM using acetylthiocholine iodide as substrate pretreated for 4.5 mins followed by substrate addition and measured after 2.5 mins by Ellman's method relative to control
Chain of Acetylcholinesterase (Electrophorus electricus) (O42275 24-633 limits assumed): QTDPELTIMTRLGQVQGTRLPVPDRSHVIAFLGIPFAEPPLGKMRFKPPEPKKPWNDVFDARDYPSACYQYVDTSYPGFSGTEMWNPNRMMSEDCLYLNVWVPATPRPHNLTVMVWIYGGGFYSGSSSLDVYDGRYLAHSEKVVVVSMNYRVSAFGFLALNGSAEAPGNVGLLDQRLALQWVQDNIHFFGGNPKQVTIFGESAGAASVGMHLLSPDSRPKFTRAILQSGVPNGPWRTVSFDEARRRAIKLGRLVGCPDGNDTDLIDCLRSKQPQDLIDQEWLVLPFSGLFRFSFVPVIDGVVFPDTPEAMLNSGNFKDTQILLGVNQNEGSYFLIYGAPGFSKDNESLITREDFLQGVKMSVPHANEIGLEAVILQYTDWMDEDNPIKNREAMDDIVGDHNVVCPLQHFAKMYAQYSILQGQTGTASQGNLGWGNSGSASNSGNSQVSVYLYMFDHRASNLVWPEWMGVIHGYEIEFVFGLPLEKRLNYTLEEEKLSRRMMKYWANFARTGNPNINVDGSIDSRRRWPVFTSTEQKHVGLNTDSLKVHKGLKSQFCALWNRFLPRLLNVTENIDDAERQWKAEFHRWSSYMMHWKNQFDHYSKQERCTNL

Chain of Acetylcholinesterase (Electrophorus electricus, UniProt O42275) (O42275 whole entry): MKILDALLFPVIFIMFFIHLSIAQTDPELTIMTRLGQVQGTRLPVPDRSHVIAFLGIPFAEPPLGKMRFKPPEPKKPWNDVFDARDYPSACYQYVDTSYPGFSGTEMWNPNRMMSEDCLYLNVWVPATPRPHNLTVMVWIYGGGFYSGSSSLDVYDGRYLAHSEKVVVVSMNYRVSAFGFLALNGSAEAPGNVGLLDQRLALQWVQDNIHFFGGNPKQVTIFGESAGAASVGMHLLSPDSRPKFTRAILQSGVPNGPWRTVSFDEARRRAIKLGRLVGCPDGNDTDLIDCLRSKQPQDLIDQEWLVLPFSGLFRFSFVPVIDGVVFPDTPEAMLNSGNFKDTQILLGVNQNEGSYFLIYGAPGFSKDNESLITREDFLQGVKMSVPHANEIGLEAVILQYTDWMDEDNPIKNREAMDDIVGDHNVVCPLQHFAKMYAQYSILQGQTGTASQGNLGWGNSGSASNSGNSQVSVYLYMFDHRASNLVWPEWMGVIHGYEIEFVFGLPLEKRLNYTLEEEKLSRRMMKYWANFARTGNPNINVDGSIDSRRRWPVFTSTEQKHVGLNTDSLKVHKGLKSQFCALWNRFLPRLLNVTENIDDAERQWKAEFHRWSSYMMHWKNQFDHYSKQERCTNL
Chain of Acetylcholinesterase (Homo sapiens, UniProt P22303) (P22303 whole entry): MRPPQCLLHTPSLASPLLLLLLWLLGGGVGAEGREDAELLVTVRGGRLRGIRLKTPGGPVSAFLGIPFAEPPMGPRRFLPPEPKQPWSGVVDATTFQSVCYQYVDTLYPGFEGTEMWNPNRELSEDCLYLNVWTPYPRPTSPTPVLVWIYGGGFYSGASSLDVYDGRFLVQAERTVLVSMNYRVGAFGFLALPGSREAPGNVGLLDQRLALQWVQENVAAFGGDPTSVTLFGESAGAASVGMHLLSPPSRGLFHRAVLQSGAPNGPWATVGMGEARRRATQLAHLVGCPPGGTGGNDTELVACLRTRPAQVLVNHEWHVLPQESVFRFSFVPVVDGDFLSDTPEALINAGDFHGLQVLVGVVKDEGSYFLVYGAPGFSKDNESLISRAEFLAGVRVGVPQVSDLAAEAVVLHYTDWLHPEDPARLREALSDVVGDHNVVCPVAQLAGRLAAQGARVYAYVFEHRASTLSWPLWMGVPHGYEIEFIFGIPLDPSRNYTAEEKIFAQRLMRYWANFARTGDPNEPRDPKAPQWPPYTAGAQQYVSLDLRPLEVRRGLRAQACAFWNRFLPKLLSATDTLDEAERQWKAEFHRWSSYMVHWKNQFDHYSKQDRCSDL
Chain of Cholinesterase (Homo sapiens, UniProt P06276) (P06276 whole entry): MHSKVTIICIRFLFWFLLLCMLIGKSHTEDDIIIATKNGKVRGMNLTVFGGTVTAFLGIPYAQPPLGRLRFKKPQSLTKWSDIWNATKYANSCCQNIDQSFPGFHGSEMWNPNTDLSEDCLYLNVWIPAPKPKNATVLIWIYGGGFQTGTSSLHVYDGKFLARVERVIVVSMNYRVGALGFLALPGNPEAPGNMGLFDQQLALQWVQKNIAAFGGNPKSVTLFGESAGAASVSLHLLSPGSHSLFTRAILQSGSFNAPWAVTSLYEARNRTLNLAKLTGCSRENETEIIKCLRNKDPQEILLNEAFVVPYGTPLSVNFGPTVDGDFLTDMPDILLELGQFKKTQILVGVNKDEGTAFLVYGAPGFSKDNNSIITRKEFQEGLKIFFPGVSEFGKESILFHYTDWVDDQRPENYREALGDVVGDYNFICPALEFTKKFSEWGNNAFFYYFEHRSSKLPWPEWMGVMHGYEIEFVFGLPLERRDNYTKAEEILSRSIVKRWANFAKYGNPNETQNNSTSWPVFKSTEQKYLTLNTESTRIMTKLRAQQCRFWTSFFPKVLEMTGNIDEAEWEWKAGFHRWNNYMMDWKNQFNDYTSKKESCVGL
Chain of Cholinesterase (Equus caballus, UniProt P81908) (P81908 whole entry): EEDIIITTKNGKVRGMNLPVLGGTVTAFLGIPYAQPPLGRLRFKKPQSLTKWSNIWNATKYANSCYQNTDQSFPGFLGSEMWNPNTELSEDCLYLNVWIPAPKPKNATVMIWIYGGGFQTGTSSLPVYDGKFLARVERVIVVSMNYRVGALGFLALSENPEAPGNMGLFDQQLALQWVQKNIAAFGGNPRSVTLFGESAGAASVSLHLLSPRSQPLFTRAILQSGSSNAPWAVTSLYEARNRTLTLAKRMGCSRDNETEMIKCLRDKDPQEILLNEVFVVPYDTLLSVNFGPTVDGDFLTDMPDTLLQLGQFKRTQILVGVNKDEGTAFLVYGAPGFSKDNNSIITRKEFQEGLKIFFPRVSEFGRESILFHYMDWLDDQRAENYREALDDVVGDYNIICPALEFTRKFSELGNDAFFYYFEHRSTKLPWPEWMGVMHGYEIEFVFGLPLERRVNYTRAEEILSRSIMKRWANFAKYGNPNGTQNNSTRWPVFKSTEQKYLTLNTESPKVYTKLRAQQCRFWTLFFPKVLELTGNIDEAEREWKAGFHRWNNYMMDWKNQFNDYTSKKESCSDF

| SMILES | IC50 [1] | IC50 [2] | IC50 [3] | logP [4] | IC50 [5] | IC50 [6] | Selectivity ratio [7] | inhibition [8] |
| --- | --- | --- | --- | --- | --- | --- | --- | --- |
| c1ccc2c(NCCCCCCCNc3c4c(nc5ccccc35)CCCC4)c3c(nc2c1)CCCC3 | < 1380 nM | 0.724 nM | 0.0331 nM | – | – | – | – | – |
| C[N+](C)(CC#CCOC1=NOCC1)CCCCCCCCCCNc1c2c(nc3ccccc13)CCCC2 | 32200 nM | 1.78 nM | 0.155 nM | 3.28 | 1.82 nM | 1.78 nM | 8 | – |
| C[N+](C)(CC#CCOC1=NOCC1)CCCCCCCCCC[N+](C)(C)CCCN1C(=O)c2ccccc2C1=O | – | 4270 nM | 5500 nM | 0.8 | 1950 nM | 13200 nM | – | – |
| CC(C)(CN1C(=O)c2cccc3cccc(c23)C1=O)C[N+](C)(C)CCCCCCCCCC[N+](C)(C)CC#CCOC1=NOCC1 | – | 102 nM | 316 nM | 1.77 | 263 nM | 1070 nM | – | – |
| C[N+](C)(CC#CCOc1ccon1)CCCC[N+](C)(C)CCCN1C(=O)c2ccccc2C1=O | – | 85100 nM | – | 1.55 | – | – | – | 19.1% |
| C[N+](C)(CC#CCOC1=NOCC1)CCCCCC[N+]1(C)CCC(N2C(=O)c3cccc4cccc(c34)C2=O)CC1 (configuration not stated) | – | 851 nM | 1050 nM | 1.54 | – | – | – | – |
| c1ccc2c(CCCCCCCCCCNc3c4c(nc5ccccc35)CCCC4)c3c(nc2c1)CCCC3 | < 1250 nM | 0.457 nM | 1 nM | – | – | – | – | – |
| BrCCCCCCCCCCNc1c2c(nc3ccccc13)CCCC2 | – | 8.71 nM | 0.562 nM | – | – | – | – | – |
| C[N+](C)(CC#CCOC1=NOCC1)CCCCCC[N+]1(C)CCC(N2C(=O)c3ccccc3C2=O)CC1 (configuration not stated) | – | 10700 nM | 2400 nM | 0.84 | – | – | – | – |
| C[N+](C)(CC#CCOc1ccon1)CCCCCCCC[N+](C)(C)CCCN1C(=O)c2ccccc2C1=O | – | 7940 nM | 67600 nM | 0.83 | – | – | – | – |
| CC(C)(CN1C(=O)c2cccc3cccc(c23)C1=O)C[N+](C)(C)CCCCCCC[N+](C)(C)CC#CCOC1=NOCC1 | – | 204 nM | 912 nM | 1.7 | – | – | – | – |
| C[N+](C)(CC#CCOc1ccon1)CCCCCC[N+](C)(C)CCCN1C(=O)c2ccccc2C1=O | – | 38900 nM | – | 0.99 | – | – | – | 32.2% |
| C[N+](C)(CC#CCOC1=NOCC1)CCCCCCC[N+](C)(C)CCCN1C(=O)c2ccccc2C1=O | – | 6460 nM | 14800 nM | 0.79 | – | – | – | – |
| CC(C)(CN1C(=O)c2cccc3cccc(c23)C1=O)C[N+](C)(C)CCCCCCCC[N+](C)(C)CC#CCOC1=NOCC1 | – | 347 nM | 794 nM | 1.61 | – | – | – | – |
| C[N+](C)(CC#CCOC1=NOCC1)CCCCCCCNc1c2c(nc3ccccc13)CCCC2 | > 160000 nM | 5.13 nM | 1.74 nM | 2.05 | 4.57 nM | 2 nM | 3 | – |
| C[N+](C)(CC#CCOC1=NOCC1)CCCCCCCCC[N+](C)(C)CCCN1C(=O)c2ccccc2C1=O | – | 13200 nM | 15800 nM | 0.79 | – | – | – | – |
| BrCCCCCCCNc1c2c(nc3ccccc13)CCCC2 | – | 263 nM | 0.398 nM | – | – | – | – | – |
| CC(C)(CN1C(=O)c2cccc3cccc(c23)C1=O)C[N+](C)(C)CCCCCCCCC[N+](C)(C)CC#CCOC1=NOCC1 | – | 324 nM | 363 nM | 1.69 | – | – | – | – |
| C[N+](C)(CC#CCOC1=NOCC1)CCCCCCCC[N+](C)(C)CCCN1C(=O)c2ccccc2C1=O | – | 7410 nM | 12900 nM | 0.78 | – | – | – | – |
